Test results taken from article PMC6042793 (PLoS ONE, 2018).

Key:
[1] = test system: sialidase activity of A/Shizuoka/30/2014 (H1N1pdm), H275Y; type: biochemical, influenza A virus (H1N1pdm); conditions: pH 6.5
[2] = test system: sialidase activity of A/Shizuoka/1573/2009 (H1N1pdm), H275Y; type: biochemical, influenza A virus (H1N1pdm); conditions: pH 6.5
[3] = target: viral sialidase activity of A/Shizuoka/30/2014 (H1N1pdm), H275Y (Influenza A virus, UniProt W8DXJ8, H275Y); type: biochemical
[4] = target: viral sialidase activity of A/Shizuoka/19/2016 (H1N1pdm) (Influenza A virus, UniProt A0A0X9QTS2); type: biochemical; conditions: read-out: IC50 values in the sialidase inhibition assay
[5] = target: viral sialidase activity of A/Shizuoka/1573/2009 (H1N1pdm), H275Y (Influenza A virus, UniProt C3W5S3, H275Y); type: biochemical; conditions: read-out: IC50 values in the sialidase inhibition assay
[6] = target: viral sialidase activity of A/Shizuoka/17/2016 (H1N1pdm) (Influenza A virus, UniProt A0A0X9QTS2); type: biochemical; conditions: read-out: IC50 values in the sialidase inhibition assay

SMILES: CCOC(=O)C1=C[C@@H](OC(CC)CC)[C@H](NC(C)=O)[C@@H](N)C1 [OV, oseltamivir]
- BTP3 fluorescence on the membrane in the presence of NAI [1]: strong fluorescence
- BTP3 fluorescence on the membrane in the presence of NAI [2]: strong fluorescence

SMILES: CCC(CC)[C@H](NC(C)=O)[C@@H]1[C@H](O)[C@@H](C(=O)O)C[C@H]1N=C(N)N [PV, peramivir]
- IC50 for A/Shizuoka/30/2014 relative to that for A/Shizuoka/1573/2009 [3]: 1.9 fold
- IC50 ([3]; read-out: IC50 values in the sialidase inhibition assay): 79 nM
- BTP3 fluorescence on the membrane in the presence of NAI [1]: strong fluorescence
- BTP3 fluorescence on the membrane in the presence of NAI [2]: strong fluorescence
- IC50 [4]: 0.05 nM
- IC50 [5]: 41 nM
- IC50 [6]: 0.05 nM
